US8772307B2, “Substituted spiro compounds and their use for producing pain-relief medicaments” (Gruenenthal GmbH, priority 2005, dated 2014)

Tests used:
[1] = target: T1, rat-species vanilloid receptor 1 (VR1/TRPV1) (Rattus norvegicus, UniProt O35433); assay: Functional testing on vanilloid receptor 1 (VR1/TRPV1): FLIPR Ca2+ inflow assay in rat dorsal root ganglia cells (% activation / % inhibition vs capsaicin); type: cell-based; conditions: for inhibition at 10 µM: inhibition compared to 10 μM CP (capsaicin); for activation at 10 µM: stimulation compared to 10 μM CP (capsaicin)
T1 construct: endogenous in cells; host or cells: primary cells dissociated from rat dorsal root ganglia (DRG)
T1 sequence (O35433 whole entry): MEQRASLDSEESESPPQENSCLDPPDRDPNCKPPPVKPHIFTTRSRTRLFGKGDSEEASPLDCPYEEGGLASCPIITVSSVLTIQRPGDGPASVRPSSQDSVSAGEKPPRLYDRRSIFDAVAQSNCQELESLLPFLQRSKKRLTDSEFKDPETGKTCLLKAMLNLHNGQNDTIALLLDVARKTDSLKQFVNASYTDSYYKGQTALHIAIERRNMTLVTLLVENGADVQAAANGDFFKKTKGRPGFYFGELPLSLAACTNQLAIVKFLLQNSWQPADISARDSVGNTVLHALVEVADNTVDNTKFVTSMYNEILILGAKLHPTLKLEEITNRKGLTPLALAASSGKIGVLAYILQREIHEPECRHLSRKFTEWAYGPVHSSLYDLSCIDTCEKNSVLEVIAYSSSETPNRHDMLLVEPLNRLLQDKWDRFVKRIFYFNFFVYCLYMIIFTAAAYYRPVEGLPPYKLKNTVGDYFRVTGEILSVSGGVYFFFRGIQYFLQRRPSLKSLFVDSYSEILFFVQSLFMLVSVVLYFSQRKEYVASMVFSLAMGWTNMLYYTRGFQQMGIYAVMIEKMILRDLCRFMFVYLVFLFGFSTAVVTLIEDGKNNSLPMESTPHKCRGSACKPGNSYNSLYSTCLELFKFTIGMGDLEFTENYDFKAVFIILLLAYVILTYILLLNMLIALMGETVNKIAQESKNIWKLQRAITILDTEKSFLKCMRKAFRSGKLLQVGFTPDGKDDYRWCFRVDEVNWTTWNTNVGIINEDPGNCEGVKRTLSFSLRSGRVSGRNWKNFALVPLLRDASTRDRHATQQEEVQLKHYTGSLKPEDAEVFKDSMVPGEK
Experimental: Preference may also be given to substituted spiro compounds according to the invention of general formula I which in a FLIPR assay in a concentration of 10 μM display inhibition of the Ca^2+ ion inflow in dorsal root ganglia of rats of at least 30%, preferably of at least 40%, particularly preferably of at least 50%, most particularly preferably of at least 70%, even more preferably of at least 90%, compared to the maximum achievable inhibition of the Ca^2+ ion inflow with capsaicin in a concentration of 10 μM.
In the FLIPR assay, the Ca^2+ inflow is quantified using a Ca^2+-sensitive dye (type Fluo-4, Molecular Probes Europe BV, Leiden, Netherlands) in a fluorescent imaging plate reader (FLIPR, Molecular Devices, Sunnyvale, USA), as described hereinafter.
I. Functional Testing Carried Out on the Vanilloid Receptor 1 (VR1/TRPV1 Receptor)
(§1) The agonistic or antagonistic effect of the substances to be tested can be determined on the rat-species vanilloid receptor 1 (VR1/TRPV1) using the following assay. According to this assay, the Ca^2+ inflow is quantified through the receptor channel using a Ca^2+-sensitive dye (type Fluo-4, Molecular Probes Europe BV, Leiden, Netherlands) in a fluorescent imaging plate reader (FLIPR, Molecular Devices, Sunnyvale, USA).
Complete medium: 50 mL HAMS F12 nutrient mixture (Gibco Invitrogen GmbH, Karlsruhe, Germany) with
10% by volume of FCS (foetal calf serum, Gibco Invitrogen GmbH, Karlsruhe, Germany, […]);
2 mM L-glutamine (Sigma, Munich, Germany);
1% by weight of AA solution (antibiotic/antimyotic solution, PAA, Pasching, Austria)
and 25 ng/ml NGF medium (2.5 S, Gibco Invitrogen GmbH, Karlsruhe, Germany)
Cell culture plate: Poly-D-lysine-coated, black 96 well plates having a clear base (96 well black/clear plate, BD Biosciences, Heidelberg, Germany) were additionally coated with laminin (Gibco Invitrogen GmbH, Karlsruhe, Germany), the laminin being diluted with PBS (Ca—Mg-free PBS, Gibco Invitrogen GmbH, Karlsruhe, Germany) to a concentration of 100 μg/mL. Aliquots having a laminin concentration of 100 μg/mL were removed and stored at −20° C. The aliquots were diluted with PBS in a ratio of 1:10 to 10 μg/mL laminin and in each case 50 μL of the solution were pipetted into a recess in the cell culture plate. The cell culture plates were incubated for at least two hours at 37° C., the excess solution was removed by suction-filtration and the recesses were each washed twice with PBS. The coated cell culture plates were stored with excess PBS which was not removed until just before the feeding of the cells.
Preparation of the Cells:
The vertebral column was removed from decapitated rats and placed immediately into cold HBSS buffer (Hank's buffered saline solution, Gibco Invitrogen GmbH, Karlsruhe, Germany), i.e. buffer located in an ice bath, mixed with 1% by volume (percent by volume) of an AA solution (antibiotic/antimyotic solution, PAA, Pasching, Austria). The vertebral column was cut longitudinally and removed together with fasciae from the vertebral canal. Subsequently, the dorsal root ganglia (DRG) were removed and again stored in cold HBSS buffer mixed with 1% by volume of an AA solution. The DRG, from which all blood remnants and spinal nerves had been removed, were transferred in each case to 500 μL of cold type 2 collagenase (PAA, Pasching, Austria) and incubated for 35 minutes at 37° C. After the addition of 2.5% by volume of trypsin (PAA, Pasching, Austria), incubation was continued for 10 minutes at 37° C. After complete incubation, the enzyme solution was carefully pipetted off and 500 μL of complete medium were added to each of the remaining DRG. The DRG were in each case suspended several times, drawn through cannulae No. 1, No. 12 and No. 16 using a syringe and transferred to a 50 mL Falcon tube which was filled up to 15 mL with complete medium. […]

vanilloid receptor (VR1) = target: T2, vanilloid receptor (VR1) (Homo sapiens, UniProt Q8NER1); assay: Functional testing on vanilloid receptor (VR1): FLIPR Ca2+ inflow assay in CHO K1 cells stably transfected with the VR1 gene; type: cell-based; conditions: for inhibition at 10 µM: CHO-K1, inhibition compared to 10 μM CP (capsaicin); for activation at 10 µM: CHO-K1, stimulation compared to 10 μM CP (capsaicin)
T2 construct: expressed in transfected cells; host or cells: CHO K1 cells (ECACC), stably transfected
T2 sequence (Q8NER1 whole entry): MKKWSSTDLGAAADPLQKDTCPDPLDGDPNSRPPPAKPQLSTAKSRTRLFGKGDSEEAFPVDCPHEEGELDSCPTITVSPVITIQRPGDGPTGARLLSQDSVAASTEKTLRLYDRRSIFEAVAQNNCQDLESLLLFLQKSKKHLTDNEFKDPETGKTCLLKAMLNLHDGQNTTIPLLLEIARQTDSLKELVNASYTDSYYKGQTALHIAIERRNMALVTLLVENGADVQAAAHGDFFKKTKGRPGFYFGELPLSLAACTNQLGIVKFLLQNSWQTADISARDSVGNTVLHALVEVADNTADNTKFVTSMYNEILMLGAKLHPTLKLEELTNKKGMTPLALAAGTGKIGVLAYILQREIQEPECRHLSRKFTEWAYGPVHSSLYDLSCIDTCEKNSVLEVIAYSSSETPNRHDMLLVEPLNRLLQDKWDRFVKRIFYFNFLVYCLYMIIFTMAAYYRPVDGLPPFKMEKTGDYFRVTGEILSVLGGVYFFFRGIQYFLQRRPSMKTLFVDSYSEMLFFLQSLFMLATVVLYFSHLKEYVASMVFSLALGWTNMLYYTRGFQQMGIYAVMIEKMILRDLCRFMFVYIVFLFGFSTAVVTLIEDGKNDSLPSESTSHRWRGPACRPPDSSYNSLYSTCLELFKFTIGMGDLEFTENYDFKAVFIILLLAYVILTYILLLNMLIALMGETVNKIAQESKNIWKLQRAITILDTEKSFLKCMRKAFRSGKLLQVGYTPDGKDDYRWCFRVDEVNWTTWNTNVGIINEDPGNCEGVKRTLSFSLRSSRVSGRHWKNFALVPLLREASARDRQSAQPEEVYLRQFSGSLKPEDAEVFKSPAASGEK
Excerpt: II. Functional Testing Carried Out on the Vanilloid Receptor (VR1)
as §1, with “can also” for “can”, “the” for “the rat-species”, “(VR1)” for “1 (VR1/TRPV1)”, “the” for “the receptor”
Chinese hamster ovary cells (CHO K1 cells, European Collection of Cell Cultures (ECACC) United Kingdom) were stably transfected with the VR1 gene. For functional testing, these cells were plated out on poly-D-lysine-coated black 96 well plates having a clear base (BD Biosciences, Heidelberg, Germany) at a density of 25,000 cells/well. The cells were incubated overnight at 37° C. and 5% CO2 in a culture medium (Ham's F12 nutrient mixture, 10% by volume of FCS (foetal calf serum), 18 μg/ml L-proline). The next day the cells were incubated with Fluo-4 (Fluo-4 2 μM, 0.01% by volume of Pluronic F127, Molecular Probes in HBSS (Hank's buffered saline solution), Gibco Invitrogen GmbH, Karlsruhe, Germany) for 30 minutes at 37° C. Subsequently, the plates were washed 3 times with HBSS buffer and after further incubation for 15 minutes at room temperature used for Ca^2+ measurement in a FLIPR assay. The Ca^2+-dependent fluorescence was measured before and after the addition of the substances to be tested (λex wavelength=488 nm, λem=540 nm). Quantification was carried out by measuring the highest fluorescence intensity (FC, Fluorescence Counts) over time.
The FLIPR protocol consists of 2 substance additions. First the compounds to be tested (10 μM) were pipetted onto the cells and the Ca^2+ inflow was compared with the control (capsaicin 10 μM) (% activation based on the Ca^2+ signal after the addition of 10 μM capsaicin). After 5 minutes' incubation, 100 nM of capsaicin were administered and the Ca^2+ inflow was also determined.
Desensitising agonists and antagonists led to suppression of the Ca^2+ inflow. The % inhibition was calculated compared to the maximum achievable inhibition with 10 μM of capsaicin.

[2] = capsaicin (CAP) stimulus, average

With `CC1CN(C(=O)Nc2ccc(C(C)(C)C)cc2)CCC12CC(c1ccccc1F)=NO2` (stereo not drawn) [Compound 364, N-(4-tert-butylphenyl)-3-(2-fluorophenyl)-6-methyl-1-oxa-2,8-diazaspiro[4.5]dec-2-ene-8-carboxamide] the inhibition at 10 µM [1] was 106%, the activation at 10 µM [1] was 4% and the inhibition at 10 µM (vanilloid receptor (VR1)) was 50%. The activation at 10 µM (vanilloid receptor (VR1)) was -1%.
`CC(C)(C)c1ccc(/C(=C/C(=O)N2CCC3(CC2)CC(c2ccccc2F)=NO3)c2ccc(Cl)c(Cl)c2)cc1` [Compound 359, (Z)-3-(4-tert-butylphenyl)-3-(3,4-dichlorophenyl)-1-(3-(2-fluorophenyl)-1-oxa-2,8-diazaspiro[4.5]dec-2-en-8-yl)prop-2-en-1-one] gave an inhibition at 10 µM [1] of 57%, an activation at 10 µM [1] of 3% and an inhibition at 10 µM (vanilloid receptor (VR1)) of 26%. It also gave an activation at 10 µM (vanilloid receptor (VR1)) of 0%.
Compound `CC(C)c1ccc(NC(=O)N2CCC3(CC2)CC(c2ccc(C(C)(C)C)cc2)=NO3)cc1` [Compound 80, 3-(4-tert-butylphenyl)-1-oxa-2,8-diazaspiro[4.5]dec-2-ene-8-carboxylic acid-(4-isopropylphenyl)amide] has an inhibition at 10 µM [1] of 62.1%, an activation at 10 µM [1] of -0.47% and an inhibition at 10 µM (vanilloid receptor (VR1)) of 3.6%. For the same compound, the activation at 10 µM (vanilloid receptor (VR1)) was 0.89%.
`CCc1ccc(NC(=O)N2CCC3(CC2)CC(c2ccc(C(F)(F)F)cc2)=NO3)cc1` [Compound 167, 3-(4-trifluoromethylphenyl)-1-oxa-2,8-diazaspiro[4.5]dec-2-ene-8-carboxylic acid-(4-ethylphenyl)amide] gave an inhibition at 10 µM [1] of 47.4%, an activation at 10 µM [1] of -0.43% and an inhibition at 10 µM (vanilloid receptor (VR1)) of 17.5%. It also gave an activation at 10 µM (vanilloid receptor (VR1)) of 0.06%.
`CC(C)(C)c1ccc(NC(=O)N2CCC3(CC2)CC(c2ccccc2F)=NO3)cc1` [Compound 352, N-(4-tert-butylphenyl)-3-(2-fluorophenyl)-1-oxa-2,8-diazaspiro[4.5]dec-2-ene-8-carboxamide] showed an inhibition at 10 µM [1] of 95%, an activation at 10 µM [1] of 7% and an inhibition at 10 µM (vanilloid receptor (VR1)) of -3%. It also gave an activation at 10 µM (vanilloid receptor (VR1)) of 2%.
Work on `COc1cccc(NC(=O)N2CCC3(CC2)CC(c2ccccc2)=NO3)c1` [Compound 205, 3-phenyl-1-oxa-2,8-diazaspiro[4.5]dec-2-ene-8-carboxylic acid-(3-methoxyphenyl)amide] yielded an inhibition at 10 µM [1] of 39.9%, an activation at 10 µM [1] of 0.15% and an inhibition at 10 µM (vanilloid receptor (VR1)) of -23.9%. It also gave an activation at 10 µM (vanilloid receptor (VR1)) of 0.33%.
In the case of `COc1cccc(C2=NOC3(CCN(C(=O)Nc4cccc(F)c4)CC3)C2)c1` [Compound 174, 3-(3-methoxyphenyl)-1-oxa-2,8-diazaspiro[4.5]dec-2-ene-8-carboxylic acid-(3-fluorophenyl)amide], the inhibition at 10 µM [1] is reported as 47.8%, the activation at 10 µM [1] is reported as -0.28% and the inhibition at 10 µM (vanilloid receptor (VR1)) is reported as -25%. It also gave an activation at 10 µM (vanilloid receptor (VR1)) of 5.9%.
`Cc1ccc(C2=NOC3(CCN(C(=O)Nc4ccc(C(C)C)cc4)CC3)C2)cc1` [Compound 81, 3-p-tolyl-1-oxa-2,8-diazaspiro[4.5]dec-2-ene-8-carboxylic acid-(4-isopropylphenyl)amide] gave an inhibition at 10 µM [1] of 58.8%, an activation at 10 µM [1] of -0.47% and an inhibition at 10 µM (vanilloid receptor (VR1)) of -2.79%. For the same compound, the activation at 10 µM (vanilloid receptor (VR1)) was -0.35%.
With `O=C(Nc1ccc(OC(F)(F)F)cc1)N1CCC2(CC1)CC(c1ccccc1)=NO2` [Compound 245, 3-phenyl-1-oxa-2,8-diazaspiro[4.5]dec-2-ene-8-carboxylic acid-(4-trifluoromethoxyphenyl)amide] the inhibition at 10 µM [1] was 99%, the activation at 10 µM [1] was 2.55% and the inhibition at 10 µM (vanilloid receptor (VR1)) was 11%. It also gave an activation at 10 µM (vanilloid receptor (VR1)) of 0.28%.
For `CSc1ccccc1NC(=O)N1CCC2(CC1)CC(c1ccc(C(C)(C)C)cc1)=NO2` [Compound 56, 3-(4-tert-butylphenyl)-1-oxa-2,8-diazaspiro[4.5]dec-2-ene-8-carboxylic acid-(2-methylsulphanylphenyl)amide], the inhibition at 10 µM [1] was 47.3%, the activation at 10 µM [1] was -0.04% and the inhibition at 10 µM (vanilloid receptor (VR1)) was 16.4%. For the same compound, the activation at 10 µM (vanilloid receptor (VR1)) was -0.22%.
For `CC(C)(C)c1ccc(NC(=O)N2CCC3(CC2)CC(c2ccc(F)cc2)=NO3)cc1` [Compound 349, N-(4-tert-butylphenyl)-3-(4-fluorophenyl)-1-oxa-2,8-diazaspiro[4.5]dec-2-ene-8-carboxamide], the inhibition at 10 µM [1] was 100%, the activation at 10 µM [1] was 5% and the inhibition at 10 µM (vanilloid receptor (VR1)) was -12%. For the same compound, the activation at 10 µM (vanilloid receptor (VR1)) was 1%.
`COc1ccc(NC(=O)N2CCC3(CC2)CC(c2cccc(OC)c2)=NO3)cc1` [Compound 47, 3-(3-methoxyphenyl)-1-oxa-2,8-diazaspiro[4.5]dec-2-ene-8-carboxylic acid-(4-methoxyphenyl)amide] gave an inhibition at 10 µM [1] of 48.3%, an activation at 10 µM [1] of 0.92% and an inhibition at 10 µM (vanilloid receptor (VR1)) of 11.4%. It also gave an activation at 10 µM (vanilloid receptor (VR1)) of 0.01%.
In the case of `CC(C)(C)c1ccc(C(/C=C/c2ccccc2)=C/C(=O)N2CCC3(CC2)CC(c2ccccc2)=NO3)cc1` [Compound 337, (2E,4E)-3-(4-tert-butylphenyl)-5-phenyl-1-(3-phenyl-1-oxa-2,8-diazaspiro[4.5]dec-2-en-8-yl)penta-2,4-dien-1-one], the inhibition at 10 µM [1] is reported as 95%, the activation at 10 µM [1] is reported as 1% and the inhibition at 10 µM (vanilloid receptor (VR1)) is reported as 16%. For the same compound, the activation at 10 µM (vanilloid receptor (VR1)) was -1%.
In the case of `O=C(C=Cc1ccc(C(F)(F)F)cc1)N1CCC2(CC1)CC(c1ccccc1)=NO2` [Compound 314, 1-(3-phenyl-1-oxa-2,8-diazaspiro[4.5]dec-2-en-8-yl)-3-(4-trifluoromethylphenyl)propenone], the IC50 [1, 2] is reported as 150 nM, the inhibition at 10 µM [1] is reported as 82% and the activation at 10 µM [1] is reported as -6%. It also gave an inhibition at 10 µM (vanilloid receptor (VR1)) of 6%, an activation at 10 µM (vanilloid receptor (VR1)) of 0% and an IC50 (vanilloid receptor (VR1); [2]) of 825 nM.
With `FS(F)(F)(F)(F)c1ccc(NC(=S)N2CCC3(CC2)CC(c2ccccc2)=NO3)cc1` [Compound 330, 3-phenyl-1-oxa-2,8-diazaspiro[4.5]dec-2-ene-8-thiocarboxylic acid-(4-pentafluorosulphanylphenyl)amide] the inhibition at 10 µM [1] was 103% and the activation at 10 µM [1] was 1%.
